In patent publication US20220389061A1, “IMMUNOMODULATORS” (priority 2019, published 2022):
Read-outs that look alike come from different tables or passages of the source. Starred links: 1 amine or outer side, 2 acyl side, 3 side chain; linkers in the order of their positions; H or OH if unused. Positions of bridges follow the written chain, without caps; N, C: chain ends. Non-standard residues stand in square brackets, D forms with d. Residues, ends and D or L forms follow the SMILES beside them. Groups on a side chain read outwards from the residue. *: point of attachment. Trp(1-CH2COOH) = N[C@@H](Cc1cn(CC(=O)O)c2ccccc12)C(=O)O; NH(benzothiophen-5-yl) = c1cc2cc(N*)ccc2s1; X63 = COc1cc([N+](=O)[O-])ccc1NC(=S)*; X67 = S=C(Nc1c(Cl)c(Cl)cc(Cl)c1Cl)*; X38 = N#Cc1c[nH]c2c(NC(=S)*)cccc12; Hyp = O=C(O)[C@@H]1C[C@@H](O)CN1; X44 = FC(F)(F)c1ccc(NC(=S)*)cc1; X28 = Cc1ccc(Cl)c(NC(=S)*)c1Cl; pNA = O=[N+]([O-])c1ccc(N*)cc1; NMeNle = CCCC[C@H](NC)C(=O)O; X85 = S=C(Nc1c(Cl)cccc1Cl)*; X52 = c1ccc2c(N*)c[nH]c2c1; 3Abz = Nc1cccc(C(=O)O)c1; NMeA = CN[C@@H](C)C(=O)O; Dab = NCC[C@H](N)C(=O)O; X39 = CCCCOc1ccc(N*)cc1; Dap = NC[C@H](N)C(=O)O; CO = O=C([*:1])[*:2]; NHPh = c1ccc(N*)cc1

Target: T1, PD-1/PD-L1 (Homo sapiens, UniProt Q9NZQ7)
T1 construct: TVMV protease site linker (C); made in house; host or cells: HEK293T cells
T1 sequence (Q9NZQ7 18-239): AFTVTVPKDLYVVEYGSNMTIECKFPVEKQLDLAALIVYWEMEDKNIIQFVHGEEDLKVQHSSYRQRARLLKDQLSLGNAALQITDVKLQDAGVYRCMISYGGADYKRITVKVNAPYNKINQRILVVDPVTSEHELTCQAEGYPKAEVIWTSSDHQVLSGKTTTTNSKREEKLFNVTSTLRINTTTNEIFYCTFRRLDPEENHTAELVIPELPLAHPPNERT
Experiment: PD-1/PD-L1 Homogenous Time-Resolved Fluorescence (HTRF) binding assay
How it was run: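 HTRF read-out using europium cryptate anti-Ig (1 nM) and APC anti-His (20 nM) on extracellular-domain fusion proteins in dPBS/0.1% BSA/0.05% Tween-20. Inhibitor first incubated 15 min with 10 nM PD-L1-His, followed by 20 nM PD-1-Ig for another 15 min.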

[1] = PD-L1-His 10 nM pre-incubated with inhibitor, PD-1-Ig 20 nM, read-out: HTRF IC50

`CCCC[C@H]1C(=O)N(C)[C@@H](CCCC)C(=O)N[C@@H](CC(C)C)C(=O)N[C@H](C(=O)NCC(N)=O)CSCC(=O)N[C@@H](Cc2ccc(O)cc2)C(=O)N(C)[C@@H](C)C(=O)N[C@@H](CC(N)=O)C(=O)N2CCC[C@H]2C(=O)N[C@@H](CNC(=S)Nc2c(Cl)ccc(C)c2Cl)C(=O)N[C@@H](CC(C)C)C(=O)N2C[C@H](O)C[C@H]2C(=O)N[C@@H](Cc2c[nH]c3ccccc23)C(=O)N[C@@H](CCN)C(=O)N[C@@H](Cc2cn(CC(=O)O)c3ccccc23)C(=O)N1C` [Example 1073] ({CH2CO}-Y[NMeA]NP[Dap](X28)L[Hyp]W[Dab][Trp(1-CH2COOH)][NMeNle][NMeNle]LCG-NH2; thioether N-14) gave an IC50 [1] of 7.9 nM.

Work on `CCCC[C@H]1C(=O)N(C)[C@@H](CCCC)C(=O)N[C@@H](CC(C)C)C(=O)N[C@H](C(=O)NCC(N)=O)CSCC(=O)N[C@@H](Cc2ccc(O)cc2)C(=O)N(C)[C@@H](C)C(=O)N[C@@H](CC(N)=O)C(=O)N2CCC[C@H]2C(=O)N[C@@H](CNC(=S)Nc2c(Cl)cccc2Cl)C(=O)N[C@@H](CC(C)C)C(=O)N2C[C@H](O)C[C@H]2C(=O)N[C@@H](Cc2c[nH]c3ccccc23)C(=O)N[C@@H](CCNC(=S)Nc2c(Cl)cccc2Cl)C(=O)N[C@@H](Cc2cn(CC(=O)O)c3ccccc23)C(=O)N1C` [Example 1039] ({CH2CO}-Y[NMeA]NP[Dap](X85)L[Hyp]W[Dab](X85)[Trp(1-CH2COOH)][NMeNle][NMeNle]LCG-NH2; thioether N-14) yielded an IC50 [1] of 0.6 nM.

For `CCCC[C@H]1C(=O)N(C)[C@@H](CCCC)C(=O)N[C@@H](CC(C)C)C(=O)N[C@H](C(=O)NCC(N)=O)CSCC(=O)N[C@@H](Cc2ccc(O)cc2)C(=O)N(C)[C@@H](C)C(=O)N[C@@H](CC(N)=O)C(=O)N2CCC[C@H]2C(=O)N[C@@H](CNC(=O)Nc2cccc(C(=O)OCC)c2)C(=O)N[C@@H](CC(C)C)C(=O)N2C[C@H](O)C[C@H]2C(=O)N[C@@H](Cc2c[nH]c3ccccc23)C(=O)N[C@@H](CCNC(=O)Nc2cccc(C(=O)OCC)c2)C(=O)N[C@@H](Cc2cn(CC(=O)O)c3ccccc23)C(=O)N1C` [Example 1100] ({CH2CO}-Y[NMeA]NP[Dap]([CO-3Abz-OEt])L[Hyp]W[Dab]([CO-3Abz-OEt])[Trp(1-CH2COOH)][NMeNle][NMeNle]LCG-NH2; thioether N-14), the IC50 [1] was 18 nM.

Work on `CCCC[C@H]1C(=O)N(C)[C@@H](CCCC)C(=O)N[C@@H](CC(C)C)C(=O)N[C@H](C(=O)NCC(N)=O)CSCC(=O)N[C@@H](Cc2ccc(O)cc2)C(=O)N(C)[C@@H](C)C(=O)N[C@@H](CC(N)=O)C(=O)N2CCC[C@H]2C(=O)N[C@@H](CNC(=O)Nc2ccccc2)C(=O)N[C@@H](CC(C)C)C(=O)N2C[C@H](O)C[C@H]2C(=O)N[C@@H](Cc2c[nH]c3ccccc23)C(=O)N[C@@H](CCN)C(=O)N[C@@H](Cc2cn(CC(=O)O)c3ccccc23)C(=O)N1C` [Example 1056] ({CH2CO}-Y[NMeA]NP[Dap]([CO-NHPh])L[Hyp]W[Dab][Trp(1-CH2COOH)][NMeNle][NMeNle]LCG-NH2; thioether N-14) yielded an IC50 [1] of 3.1 nM.

`CCCC[C@H]1C(=O)N(C)[C@@H](CCCC)C(=O)N[C@@H](CC(C)C)C(=O)N[C@H](C(=O)NCC(N)=O)CSCC(=O)N[C@@H](Cc2ccc(O)cc2)C(=O)N(C)[C@@H](C)C(=O)N[C@@H](CC(N)=O)C(=O)N2CCC[C@H]2C(=O)N[C@@H](CN)C(=O)N[C@@H](CC(C)C)C(=O)N2C[C@H](O)C[C@H]2C(=O)N[C@@H](Cc2c[nH]c3ccccc23)C(=O)N[C@@H](CCNC(=O)Nc2ccc([N+](=O)[O-])cc2)C(=O)N[C@@H](Cc2cn(CC(=O)O)c3ccccc23)C(=O)N1C` [Example 1131] ({CH2CO}-Y[NMeA]NP[Dap]L[Hyp]W[Dab]([CO-pNA])[Trp(1-CH2COOH)][NMeNle][NMeNle]LCG-NH2; thioether N-14) showed an IC50 of 7.3 nM.

With `CCCC[C@H]1C(=O)N(C)[C@@H](CCCC)C(=O)N[C@@H](CC(C)C)C(=O)N[C@H](C(=O)NCC(N)=O)CSCC(=O)N[C@@H](Cc2ccc(O)cc2)C(=O)N(C)[C@@H](C)C(=O)N[C@@H](CC(N)=O)C(=O)N2CCC[C@H]2C(=O)N[C@@H](CNC(=S)Nc2c(Cl)c(Cl)cc(Cl)c2Cl)C(=O)N[C@@H](CC(C)C)C(=O)N2C[C@H](O)C[C@H]2C(=O)N[C@@H](Cc2c[nH]c3ccccc23)C(=O)N[C@@H](CCN)C(=O)N[C@@H](Cc2cn(CC(=O)O)c3ccccc23)C(=O)N1C` [Example 1110] ({CH2CO}-Y[NMeA]NP[Dap](X67)L[Hyp]W[Dab][Trp(1-CH2COOH)][NMeNle][NMeNle]LCG-NH2; thioether N-14) the IC50 [1] was 2 nM.

`CCCC[C@H]1C(=O)N(C)[C@@H](CCCC)C(=O)N[C@@H](CC(C)C)C(=O)N[C@H](C(=O)NCC(N)=O)CSCC(=O)N[C@@H](Cc2ccc(O)cc2)C(=O)N(C)[C@@H](C)C(=O)N[C@@H](CC(N)=O)C(=O)N2CCC[C@H]2C(=O)N[C@@H](CNC(=S)Nc2ccc(C(F)(F)F)cc2)C(=O)N[C@@H](CC(C)C)C(=O)N2C[C@H](O)C[C@H]2C(=O)N[C@@H](Cc2c[nH]c3ccccc23)C(=O)N[C@@H](CCNC(=S)Nc2ccc(C(F)(F)F)cc2)C(=O)N[C@@H](Cc2cn(CC(=O)O)c3ccccc23)C(=O)N1C` [Example 1035] ({CH2CO}-Y[NMeA]NP[Dap](X44)L[Hyp]W[Dab](X44)[Trp(1-CH2COOH)][NMeNle][NMeNle]LCG-NH2; thioether N-14) gave an IC50 [1] of 2.1 nM.

For `CCCC[C@H]1C(=O)N(C)[C@@H](CCCC)C(=O)N[C@@H](CC(C)C)C(=O)N[C@H](C(=O)NCC(N)=O)CSCC(=O)N[C@@H](Cc2ccc(O)cc2)C(=O)N(C)[C@@H](C)C(=O)N[C@@H](CC(N)=O)C(=O)N2CCC[C@H]2C(=O)N[C@@H](CNC(=O)Nc2c[nH]c3ccccc23)C(=O)N[C@@H](CC(C)C)C(=O)N2C[C@H](O)C[C@H]2C(=O)N[C@@H](Cc2c[nH]c3ccccc23)C(=O)N[C@@H](CCNC(=O)Nc2c[nH]c3ccccc23)C(=O)N[C@@H](Cc2cn(CC(=O)O)c3ccccc23)C(=O)N1C` [Example 3060] ({CH2CO}-Y[NMeA]NP[Dap]([CO-X52])L[Hyp]W[Dab]([CO-X52])[Trp(1-CH2COOH)][NMeNle][NMeNle]LCG-NH2; thioether N-14), the IC50 [1] was 2.7 nM.

Compound `CCCC[C@H]1C(=O)N(C)[C@@H](CCCC)C(=O)N[C@@H](CC(C)C)C(=O)N[C@H](C(=O)NCC(N)=O)CSCC(=O)N[C@@H](Cc2ccc(O)cc2)C(=O)N(C)[C@@H](C)C(=O)N[C@@H](CC(N)=O)C(=O)N2CCC[C@H]2C(=O)N[C@@H](CNC(=S)Nc2c(Cl)cccc2Cl)C(=O)N[C@@H](CC(C)C)C(=O)N2C[C@H](O)C[C@H]2C(=O)N[C@@H](Cc2c[nH]c3ccccc23)C(=O)N[C@@H](CCN)C(=O)N[C@@H](Cc2cn(CC(=O)O)c3ccccc23)C(=O)N1C` [Example 1038] ({CH2CO}-Y[NMeA]NP[Dap](X85)L[Hyp]W[Dab][Trp(1-CH2COOH)][NMeNle][NMeNle]LCG-NH2; thioether N-14) has an IC50 [1] of 2.4 nM.

In the case of `CCCC[C@H]1C(=O)N(C)[C@@H](CCCC)C(=O)N[C@@H](CC(C)C)C(=O)N[C@H](C(=O)NCC(N)=O)CSCC(=O)N[C@@H](Cc2ccc(O)cc2)C(=O)N(C)[C@@H](C)C(=O)N[C@@H](CC(N)=O)C(=O)N2CCC[C@H]2C(=O)N[C@@H](CN)C(=O)N[C@@H](CC(C)C)C(=O)N2C[C@H](O)C[C@H]2C(=O)N[C@@H](Cc2c[nH]c3ccccc23)C(=O)N[C@@H](CCNC(=O)Nc2ccc3sccc3c2)C(=O)N[C@@H](Cc2cn(CC(=O)O)c3ccccc23)C(=O)N1C` [Example 3038] ({CH2CO}-Y[NMeA]NP[Dap]L[Hyp]W[Dab]([CO-NH(benzothiophen-5-yl)])[Trp(1-CH2COOH)][NMeNle][NMeNle]LCG-NH2; thioether N-14), the IC50 [1] is reported as 5.3 nM.

For `CCCC[C@H]1C(=O)N(C)[C@@H](CCCC)C(=O)N[C@@H](CC(C)C)C(=O)N[C@H](C(=O)NCC(N)=O)CSCC(=O)N[C@@H](Cc2ccc(O)cc2)C(=O)N(C)[C@@H](C)C(=O)N[C@@H](CC(N)=O)C(=O)N2CCC[C@H]2C(=O)N[C@@H](CNC(=S)Nc2ccc([N+](=O)[O-])cc2OC)C(=O)N[C@@H](CC(C)C)C(=O)N2C[C@H](O)C[C@H]2C(=O)N[C@@H](Cc2c[nH]c3ccccc23)C(=O)N[C@@H](CCN)C(=O)N[C@@H](Cc2cn(CC(=O)O)c3ccccc23)C(=O)N1C` [Example 1112] ({CH2CO}-Y[NMeA]NP[Dap](X63)L[Hyp]W[Dab][Trp(1-CH2COOH)][NMeNle][NMeNle]LCG-NH2; thioether N-14), the IC50 [1] was 1.2 nM.

`CCCCOc1ccc(NC(=O)NC[C@@H]2NC(=O)[C@@H]3CCCN3C(=O)[C@H](CC(N)=O)NC(=O)[C@H](C)N(C)C(=O)[C@H](Cc3ccc(O)cc3)NC(=O)CSC[C@@H](C(=O)NCC(N)=O)NC(=O)[C@H](CC(C)C)NC(=O)[C@H](CCCC)N(C)C(=O)[C@H](CCCC)N(C)C(=O)[C@H](Cc3cn(CC(=O)O)c4ccccc34)NC(=O)[C@H](CCN)NC(=O)[C@H](Cc3c[nH]c4ccccc34)NC(=O)[C@@H]3C[C@@H](O)CN3C(=O)[C@H](CC(C)C)NC2=O)cc1` [Example 1139] ({CH2CO}-Y[NMeA]NP[Dap]([CO-X39])L[Hyp]W[Dab][Trp(1-CH2COOH)][NMeNle][NMeNle]LCG-NH2; thioether N-14) was tested, and the IC50 [1] was 13 nM.

Compound `CCCC[C@H]1C(=O)N(C)[C@@H](CCCC)C(=O)N[C@@H](CC(C)C)C(=O)N[C@H](C(=O)NCC(N)=O)CSCC(=O)N[C@@H](Cc2ccc(O)cc2)C(=O)N(C)[C@@H](C)C(=O)N[C@@H](CC(N)=O)C(=O)N2CCC[C@H]2C(=O)N[C@@H](CNC(=S)Nc2cccc3c(C#N)c[nH]c23)C(=O)N[C@@H](CC(C)C)C(=O)N2C[C@H](O)C[C@H]2C(=O)N[C@@H](Cc2c[nH]c3ccccc23)C(=O)N[C@@H](CCNC(=S)Nc2cccc3c(C#N)c[nH]c23)C(=O)N[C@@H](Cc2cn(CC(=O)O)c3ccccc23)C(=O)N1C` [Example 3051] ({CH2CO}-Y[NMeA]NP[Dap](X38)L[Hyp]W[Dab](X38)[Trp(1-CH2COOH)][NMeNle][NMeNle]LCG-NH2; thioether N-14) has an IC50 [1] of 4.5 nM.
